Data as given in a melting point compilation (Tetko et al.; mined from patent text by program, amines drawn as free bases though some values may be those of a salt).

Compound	melting point [°C]
CCN1C(=O)[C@@H](N)COc2ccccc21	97
CS(=O)(=O)c1ccc(-c2cc(C(=O)c3ccc(Cl)cc3Cl)sc2N2CCOCC2)cc1	170
O=C(C=Cc1ccncc1)c1ccc(F)cc1	157
COc1ccc(Br)c(CC(C#N)C(=O)O)c1OC (configuration not stated)	120 to 122
Fc1ccc(C(c2ccc(F)c(F)c2)c2ccc(F)c(F)c2)cc1F	95 to 96
COC(=O)c1ccc(OS(=O)(=O)C(F)(F)F)c(C23CC4CC(CC(C4)C2)C3)c1	95
NC(=O)c1cc(-c2ccc(Cl)cc2)sc1N	255 to 257
ClC(=NNc1c(Cl)cc(Cl)cc1Cl)c1ccccc1	93 to 94.5
O[C@H]1CCCN[C@H]1c1ccccc1 (relative stereo)	93 to 95
CC1=C(O)C(=O)C(C)(CO)O1 (configuration not stated)	124 to 125
O=C1N(Cc2ncccc2C(F)(F)F)c2ccccc2C12COc1c2ccc2c1OCCO2 (configuration not stated)	206 to 207
CCC#CCCOc1cc(C=O)ccc1OC	86.5 to 87.5
CCN(CC)Nc1ccc(CN2OCC(C)(C)C2=O)c(Cl)c1	139 to 141
CC(Cl)c1ccccc1S(N)(=O)=O (configuration not stated)	121 to 122
O=C(Nc1ccc(N2CCOCC2=O)cc1)[C@H]1CCCN1C(=O)Nc1ccc(Cl)cc1	228
COC(=O)C1=CC(C(=O)c2cc(C)ccc2O)=CN2CCc3c([nH]c4ccccc34)C12C(=O)OC (configuration not stated)	197
CCCc1c(-c2ccc(C(=O)OC)cc2)oc2cc(S(=O)(=O)Cl)ccc2c1=O	128
O=C1CCCc2cc(O)ccc21	153 to 155
CCCn1c(COCC)nc2c(N)nc3cc(OC4CCN(C(=O)NC(C)C)CC4)ccc3c21	163 to 164
c1cncc(C2CCc3ccccc3O2)c1 (configuration not stated)	59 to 60

Compound	melting point [°C]
COc1cc(-c2nc(N3CCNC(C)C3)c3c(C)c(C#N)sc3n2)cc(OC)c1OC (configuration not stated)	213 to 215
COc1ccc2c(c1)C1(CCN(CCCC(=O)c3ccc(F)cc3)C1)CC2O (configuration not stated)	163 to 165
CCOC(=O)C1=C(C)NC(N)=C(C(=O)OCC)C1Cc1cccs1 (configuration not stated)	170
Cc1nc2c(cc1C(=O)O)CCCC2	196 to 197
Cc1ccc2c(c1)c(=O)c1c(cnn1C)n2CCCl	116 to 119
COC(=O)c1cc(C(=O)NCC(C)(C)C)ccc1-c1cc(C(=O)OC(C)(C)C)cc(F)c1C	68 to 74
CNc1nc(-c2cccc(NC(=O)c3ccc(OC)c(OC4CCCC4)c3)c2)c2cc(OC)c(OC)cc2n1	129 to 131
CC(C)Oc1nc(O)ns1	74
N#Cc1cnn(-c2ccc(C(F)(F)F)cc2Cl)c1Br	127
O=C1NC(=O)C(Cc2ccc(O)cc2)S1 (configuration not stated)	151 to 152
N#Cc1ccc(CN2C(=O)C3(COc4cc5c(cc43)OCO5)c3ccccc32)o1 (configuration not stated)	167 to 169
NC(=O)N1C(=O)C(C(=O)c2ccco2)c2ncc(Cl)cc21 (configuration not stated)	> 250
O=C(Nc1cc(C(F)(F)F)on1)C(Cl)(Cl)Cl	114
CN1CCN(CC/C=C/c2cc3c(Nc4ccc5[nH]ccc5c4)c(C#N)cnc3s2)CC1	220
Cc1nc2n(C)ncn2c(=O)c1CCO	215
COc1cc(N)c(C)c(OC)c1OC	49 to 51
Cc1ccc(C2C=C3C(=CCC4=C3NN(C)CC4)S2=O)cc1 (configuration not stated)	160 to 162
O=C(O)c1cn(-c2ccc(F)cc2)c2c(F)c(F)c(F)cc2c1=O	261 to 263
CC(C)(C)OC(=O)NC1CCN(c2c(F)cc3c(=O)c(C(=O)O)cn(C4CC4)c3c2F)C1 (configuration not stated)	239 to 240
Cc1cc2c(s1)CCCN(CCN1CCN(c3ncccn3)CC1)C2=O	137 to 139

Next, values leading:

melting point [°C]	Compound
156 to 158	CC(C)(C)CNc1nc(C#N)nc2ccc(OCc3cccnc3)cc12
89 to 91	Oc1ccc(Oc2ccc(OCC(O)CCc3cccnc3)cc2)cc1 (configuration not stated)
113 to 115	N#Cc1c(-c2ccccc2)c(-c2ccccc2)nn(CCC(=O)NCC(=O)O)c1=O
157 to 160	CC(CCCCN(C)c1ccccc1)NCC(O)c1ccc(O)c(C(N)=O)c1 (configuration not stated)
187 to 188	O=C(O)CCc1cn(Cc2cccc(C(=O)Nc3ccccn3)c2)nc1-c1ccccc1
140 to 141	COc1ccc2c(c1)c(CNc1ccccc1Oc1ccc(Cl)cc1)cn2C(C)=O
163 to 165	CC(C)NCC(O)COc1cccc2c1C(=Cc1ccccc1)C(=O)N2 (configuration not stated)
152 to 154	CC(C)c1cccc(C(C)C)c1NC(=O)NCC1(c2ccc3ccccc3c2)CCCC1
115	COC(=O)C(=NO)c1ccccc1COc1ccccc1C
157 to 158	N#CC(C(=O)Cl)=C(c1ccccc1)c1ccccc1
103 to 104	CC(C)(C)OC(=O)N[C@@H](Cc1ccc(-c2ccc(F)cc2)cc1)C(=O)OCc1ccccc1
214 to 218	CCCNC(=O)C(C)Cc1ccc2cccc(Cc3ccc(C(=O)NS(=O)(=O)c4ccccc4)cc3OC)c2c1 (configuration not stated)
180 to 181	COc1cc(OC)cc(C(=O)N2CCc3cc(OCc4ccccc4)c(OC)cc3C2=O)c1
100 to 101	COc1ccc(-n2nc(-c3ccc(OC)c(CCC(=O)O)c3OC)cc2-c2ccc(Cl)cc2)cc1
228 to 230	Nc1ccc2c(c1)Cc1c(-c3ccccc3)n[nH]c1-2
117 to 118	COc1ccc(O[C@@H]2COc3ccc(OCc4ccccn4)cc3[C@@H]2O)cc1 (relative stereo)

melting point [°C]	Compound
247 to 248	O=C(O)c1oc2ccc(Cl)cc2c1-c1ccccc1
207 to 209	CC(C)(C(=O)O)c1ccc2cc(OCc3ccc4ccccc4n3)ccc2c1
136 to 138	CN(C(=O)OC(C)(C)C)c1cc(Oc2ccccc2N2CCCC2)ccc1N
120 to 122	COc1cc(NC(=O)c2ccc(Cl)cc2)c(C(N)=O)cc1OC
273 to 276	O=C(C=CC=C(c1ccc(Cl)cc1)c1ccc(Cl)cc1)Nc1ccc(C(=O)O)cc1
200 to 201	CS(=O)(=O)c1cnc2c(c1)cc(-c1ncco1)n2Cc1ccc(F)cc1
194 to 195	COc1cc(OC)cc(-c2nc(CCOc3ccc(C[C@H](OC)C(=O)O)c4sccc34)c(C)o2)c1
270 to 274	Cc1cc(-c2ccc(O)cc2)cc2ccc(=O)[nH]c12
152	c1ccc(COc2c(-c3ccccc3)n[nH]c2-c2ccccc2)cc1
242 to 248	Clc1ccc(Nc2nc(-c3cccc(Br)n3)nc3ccccc23)cc1
196 to 198	COc1ccc(OC)c(S(=O)(=O)n2c(COC(C)C(=O)O)cc3cc(Cl)ccc32)c1 (configuration not stated)
196 to 201	Cc1c(NC(=O)c2cccnc2NCc2ccc(=O)[nH]c2)cccc1C(F)(F)F
197 to 198	O=c1c2ccccc2sc2c(Cl)cc(Cl)c(Oc3ccccc3)c12
231 to 233	CCc1cnc2c(NC(=O)c3c(Cl)cccc3Cl)cccc2c1C(=O)O
77 to 79	CNC(Cc1ccccc1NC(=O)C(C)(C)C)c1ccccc1C (configuration not stated)
238 to 240	O=C1CCC(N2C(=O)c3cccc(OCc4ccccc4)c3C2=O)C(=O)N1 (configuration not stated)
